Source: ChEMBL document CHEMBL1142376, “Novel CADD-based peptidyl vinyl ester derivatives as potential proteasome inhibitors” (Bioorg Med Chem Lett, 2008)

Tested on: KB
Assay: Antiproliferative activity against human KB cells at 10 umole
Assay type: functional

Row | Compound | Activity [%]
1 | CCOC(=O)/C=C/[C@H](Cc1ccccc1)NC(=O)[C@H](Cc1ccccc1)NC(=O)[C@H](CC(C)C)NC(=O)OC(C)(C)C | 4.33
2 | CCOC(=O)/C=C/[C@H](C[C@@H]1CCNC1=O)NC(=O)[C@H](Cc1ccc(O)cc1)NC(=O)[C@H](CC(C)C)NC(=O)[C@H](CC(C)C)NC(=O)OC(C)(C)C | 6.64
3 | CCOC(=O)/C=C/[C@H](C[C@@H]1CCNC1=O)NC(=O)[C@H](CO)NC(=O)[C@@H](NC(=O)OC(C)(C)C)C(C)C | -3.45
4 | CCOC(=O)/C=C/[C@H](C[C@@H]1CCNC1=O)NC(=O)[C@H](CC(C)C)NC(=O)[C@@H](NC(=O)[C@@H](NC(=O)OC(C)(C)C)[C@@H](C)CC)[C@@H](C)O | 4.3
5 | CCOC(=O)/C=C/[C@H](Cc1ccccc1)NC(=O)[C@H](CC(C)C)NC(=O)OC(C)(C)C | -6.67
6 | CCOC(=O)/C=C/[C@H](Cc1ccccc1)NC(=O)[C@@H](NC(=O)OC(C)(C)C)C(C)C | -1.97
7 | CCOC(=O)/C=C/[C@H](Cc1ccc(O)cc1)NC(=O)[C@H](Cc1ccccc1)NC(=O)[C@H](CC(C)C)NC(=O)OC(C)(C)C | -5.34

Tested on: not listed separately
Assay: Inhibition of chymotrypsin-like activity of 20S proteasome

Row | IC50 [µmol] | Compound
8 | > 100 | CCOC(=O)/C=C/[C@H](Cc1ccccc1)NC(=O)[C@H](Cc1ccccc1)NC(=O)[C@H](CC(C)C)NC(=O)OC(C)(C)C
9 | 63.41 | CCOC(=O)/C=C/[C@H](C[C@@H]1CCNC1=O)NC(=O)[C@H](Cc1ccc(O)cc1)NC(=O)[C@H](CC(C)C)NC(=O)[C@H](CC(C)C)NC(=O)OC(C)(C)C

More lines, now with the values behind:

Row | Compound | IC50 [µmol]
10 | CCOC(=O)/C=C/[C@H](C[C@@H]1CCNC1=O)NC(=O)[C@H](CO)NC(=O)[C@@H](NC(=O)OC(C)(C)C)C(C)C | > 100
11 | CCOC(=O)/C=C/[C@H](C[C@@H]1CCNC1=O)NC(=O)[C@H](CC(C)C)NC(=O)[C@@H](NC(=O)[C@@H](NC(=O)OC(C)(C)C)[C@@H](C)CC)[C@@H](C)O | > 100
12 | CCOC(=O)/C=C/[C@H](Cc1ccccc1)NC(=O)[C@H](CC(C)C)NC(=O)OC(C)(C)C | > 100
13 | CCOC(=O)/C=C/[C@H](Cc1ccccc1)NC(=O)[C@@H](NC(=O)OC(C)(C)C)C(C)C | > 100
14 | CCOC(=O)/C=C/[C@H](Cc1ccc(O)cc1)NC(=O)[C@H](Cc1ccccc1)NC(=O)[C@H](CC(C)C)NC(=O)OC(C)(C)C | > 100

Tested on: Bel-7402
Assay: Antiproliferative activity against human Bel7402 cells at 10 umole
Assay type: functional

Row | Compound | Activity [%]
15 | CCOC(=O)/C=C/[C@H](Cc1ccccc1)NC(=O)[C@H](Cc1ccccc1)NC(=O)[C@H](CC(C)C)NC(=O)OC(C)(C)C | -4.56
16 | CCOC(=O)/C=C/[C@H](C[C@@H]1CCNC1=O)NC(=O)[C@H](Cc1ccc(O)cc1)NC(=O)[C@H](CC(C)C)NC(=O)[C@H](CC(C)C)NC(=O)OC(C)(C)C | 7.64
17 | CCOC(=O)/C=C/[C@H](C[C@@H]1CCNC1=O)NC(=O)[C@H](CO)NC(=O)[C@@H](NC(=O)OC(C)(C)C)C(C)C | -4.98
18 | CCOC(=O)/C=C/[C@H](C[C@@H]1CCNC1=O)NC(=O)[C@H](CC(C)C)NC(=O)[C@@H](NC(=O)[C@@H](NC(=O)OC(C)(C)C)[C@@H](C)CC)[C@@H](C)O | -0.31
19 | CCOC(=O)/C=C/[C@H](Cc1ccccc1)NC(=O)[C@H](CC(C)C)NC(=O)OC(C)(C)C | 1.55
20 | CCOC(=O)/C=C/[C@H](Cc1ccccc1)NC(=O)[C@@H](NC(=O)OC(C)(C)C)C(C)C | -3.57
21 | CCOC(=O)/C=C/[C@H](Cc1ccc(O)cc1)NC(=O)[C@H](Cc1ccccc1)NC(=O)[C@H](CC(C)C)NC(=O)OC(C)(C)C | -4.24

Tested on: not listed separately
Assay: Inhibition of post acidic-like activity of 20S proteasome

Row | IC50 [µmol] | Compound
22 | > 100 | CCOC(=O)/C=C/[C@H](Cc1ccccc1)NC(=O)[C@H](Cc1ccccc1)NC(=O)[C@H](CC(C)C)NC(=O)OC(C)(C)C
23 | > 100 | CCOC(=O)/C=C/[C@H](C[C@@H]1CCNC1=O)NC(=O)[C@H](Cc1ccc(O)cc1)NC(=O)[C@H](CC(C)C)NC(=O)[C@H](CC(C)C)NC(=O)OC(C)(C)C

Second part, the compound before the results:

Row | Compound | IC50 [µmol]
24 | CCOC(=O)/C=C/[C@H](C[C@@H]1CCNC1=O)NC(=O)[C@H](CO)NC(=O)[C@@H](NC(=O)OC(C)(C)C)C(C)C | > 100
25 | CCOC(=O)/C=C/[C@H](C[C@@H]1CCNC1=O)NC(=O)[C@H](CC(C)C)NC(=O)[C@@H](NC(=O)[C@@H](NC(=O)OC(C)(C)C)[C@@H](C)CC)[C@@H](C)O | > 100
26 | CCOC(=O)/C=C/[C@H](Cc1ccccc1)NC(=O)[C@H](CC(C)C)NC(=O)OC(C)(C)C | > 100
27 | CCOC(=O)/C=C/[C@H](Cc1ccccc1)NC(=O)[C@@H](NC(=O)OC(C)(C)C)C(C)C | > 100
28 | CCOC(=O)/C=C/[C@H](Cc1ccc(O)cc1)NC(=O)[C@H](Cc1ccccc1)NC(=O)[C@H](CC(C)C)NC(=O)OC(C)(C)C | > 100

Tested on: not listed separately
Assay: Inhibition of trypsin-like activity of 20S proteasome

Row | IC50 [µmol] | Compound
29 | > 100 | CCOC(=O)/C=C/[C@H](Cc1ccccc1)NC(=O)[C@H](Cc1ccccc1)NC(=O)[C@H](CC(C)C)NC(=O)OC(C)(C)C
30 | > 100 | CCOC(=O)/C=C/[C@H](C[C@@H]1CCNC1=O)NC(=O)[C@H](Cc1ccc(O)cc1)NC(=O)[C@H](CC(C)C)NC(=O)[C@H](CC(C)C)NC(=O)OC(C)(C)C

The remaining lines, values behind:

Row | Compound | IC50 [µmol]
31 | CCOC(=O)/C=C/[C@H](C[C@@H]1CCNC1=O)NC(=O)[C@H](CO)NC(=O)[C@@H](NC(=O)OC(C)(C)C)C(C)C | > 100
32 | CCOC(=O)/C=C/[C@H](C[C@@H]1CCNC1=O)NC(=O)[C@H](CC(C)C)NC(=O)[C@@H](NC(=O)[C@@H](NC(=O)OC(C)(C)C)[C@@H](C)CC)[C@@H](C)O | > 100
33 | CCOC(=O)/C=C/[C@H](Cc1ccccc1)NC(=O)[C@H](CC(C)C)NC(=O)OC(C)(C)C | > 100
34 | CCOC(=O)/C=C/[C@H](Cc1ccccc1)NC(=O)[C@@H](NC(=O)OC(C)(C)C)C(C)C | > 100
35 | CCOC(=O)/C=C/[C@H](Cc1ccc(O)cc1)NC(=O)[C@H](Cc1ccccc1)NC(=O)[C@H](CC(C)C)NC(=O)OC(C)(C)C | > 100

Tested on: BGC-823
Assay: Antiproliferative activity against human BGC823 cells at 10 umole
Assay type: functional

Row | Compound | Activity [%]
36 | CCOC(=O)/C=C/[C@H](Cc1ccccc1)NC(=O)[C@H](Cc1ccccc1)NC(=O)[C@H](CC(C)C)NC(=O)OC(C)(C)C | 13.32
37 | CCOC(=O)/C=C/[C@H](C[C@@H]1CCNC1=O)NC(=O)[C@H](Cc1ccc(O)cc1)NC(=O)[C@H](CC(C)C)NC(=O)[C@H](CC(C)C)NC(=O)OC(C)(C)C | 28.9
38 | CCOC(=O)/C=C/[C@H](C[C@@H]1CCNC1=O)NC(=O)[C@H](CO)NC(=O)[C@@H](NC(=O)OC(C)(C)C)C(C)C | 5.52
39 | CCOC(=O)/C=C/[C@H](C[C@@H]1CCNC1=O)NC(=O)[C@H](CC(C)C)NC(=O)[C@@H](NC(=O)[C@@H](NC(=O)OC(C)(C)C)[C@@H](C)CC)[C@@H](C)O | 19.98
40 | CCOC(=O)/C=C/[C@H](Cc1ccccc1)NC(=O)[C@H](CC(C)C)NC(=O)OC(C)(C)C | 30.21
41 | CCOC(=O)/C=C/[C@H](Cc1ccccc1)NC(=O)[C@@H](NC(=O)OC(C)(C)C)C(C)C | 21.27
42 | CCOC(=O)/C=C/[C@H](Cc1ccc(O)cc1)NC(=O)[C@H](Cc1ccccc1)NC(=O)[C@H](CC(C)C)NC(=O)OC(C)(C)C | 13.74

Tested on: HL-60
Assay: Antiproliferative activity against human HL60 cells at 10 umole
Assay type: functional

Row | Compound | Activity [%]
43 | CCOC(=O)/C=C/[C@H](Cc1ccccc1)NC(=O)[C@H](Cc1ccccc1)NC(=O)[C@H](CC(C)C)NC(=O)OC(C)(C)C | 8.65
44 | CCOC(=O)/C=C/[C@H](C[C@@H]1CCNC1=O)NC(=O)[C@H](Cc1ccc(O)cc1)NC(=O)[C@H](CC(C)C)NC(=O)[C@H](CC(C)C)NC(=O)OC(C)(C)C | 17.73
45 | CCOC(=O)/C=C/[C@H](C[C@@H]1CCNC1=O)NC(=O)[C@H](CO)NC(=O)[C@@H](NC(=O)OC(C)(C)C)C(C)C | -1.94
46 | CCOC(=O)/C=C/[C@H](C[C@@H]1CCNC1=O)NC(=O)[C@H](CC(C)C)NC(=O)[C@@H](NC(=O)[C@@H](NC(=O)OC(C)(C)C)[C@@H](C)CC)[C@@H](C)O | -2.32
47 | CCOC(=O)/C=C/[C@H](Cc1ccccc1)NC(=O)[C@H](CC(C)C)NC(=O)OC(C)(C)C | 33.88
48 | CCOC(=O)/C=C/[C@H](Cc1ccccc1)NC(=O)[C@@H](NC(=O)OC(C)(C)C)C(C)C | 27.13
49 | CCOC(=O)/C=C/[C@H](Cc1ccc(O)cc1)NC(=O)[C@H](Cc1ccccc1)NC(=O)[C@H](CC(C)C)NC(=O)OC(C)(C)C | 7.87
